Data as given in patent US6355687B1, “Cosmetic compositions containing substituted iminodibenzyl or fluorene derivatives” (Unilever Home and Personal Care USA, division of Conopco, …, priority 2000, dated 2002).
Values joined by “and” are separate entries in the source; they are usually repeats but may differ in a detail not shown here. Equal entries are not always repeated. Where two headings read alike, the source gives them in different places.

System: human sebocytes
Experiment: Sebum suppression: 14C-acetate incorporation in cultured human sebocytes, test agent alone or with retinol
Type: cell-based
Settings: for activity at 1 µM / activity at 10 µM: read-out: % of Control
Protocol: Compounds A through H were tested for their potential to suppress sebum expression, alone or in the presence of a retinoid.
Secondary cultures of human sebocytes obtained from an adult […] were grown in 48-well tissue culture plates (Costar Corp.; Cambridge, Mass.) or 96-well tissue culture plates (Packard Co.; Meriden, Conn.) until confluent. Sebocyte growth medium consisted of Clonetics Keratinocyte Basal Medium (KBM) supplemented with 14 μg/ml bovine pituitary extract, 0.4 μg/ml hydrocortisone, 5 μg/ml insulin, 10 ng/ml epidermal growth factor, 1.2×10−10 M cholera toxin, 100 units/ml penicillin, and 100 μg/ml streptomycin. All cultures were incubated at 37° C. in the presence of 7.5% CO2. Medium was changed three times per week.
On the day of experimentation, the growth medium was removed and the sebocytes washed three times with sterile Dulbecco's Modified Eagle Medium (DMEM; phenol red free). Fresh DMEM was added to each sample (duplicates, triplicates, or quadruplicates depending on the experiment) with 5 microliter of test agent solubilized in ethanol either alone or in the presence of one or 10 micromolar of retinol. Controls consisted of addition of ethanol alone, retinol alone, or phenol red, which has estrogen-like activity and is included as a positive control.
Each plate was returned to the incubator for 20 hours followed by the addition of 14C-acetate buffer (5 mM final concentration, 56 mCi/mmol specific activity). Sebocytes were returned to the incubator for four hours after which each culture was rinsed three times with phosphate buffered saline to remove unbound label. Radioactive label remaining in the sebocytes was harvested and counted using a Beckman scintillation counter.

[1] = 10 μM test compound + 10 μM Retinol
[2] = Homo sapiens, 1 μM test compound + 1 μM Retinol
[3] = Homo sapiens, 1 μM test compound + 10 μM Retinol
[4] = Homo sapiens, 1 μM test compound alone
[5] = Homo sapiens, 10 μM test compound + 1 μM Retinol
[6] = Homo sapiens, 10 μM test compound + 10 μM Retinol
[7] = Homo sapiens, 10 μM test compound alone

SMILES	activity at 1 µM [2] [%]	activity at 1 µM [3] [%]	activity at 1 µM [4] [%]	activity at 10 µM [5] [%]	activity at 10 µM [6] [%]	activity at 10 µM [7] [%]	further results
CC(O)c1cccc(NC(=O)N2c3ccccc3CCc3ccccc32)c1 (stereo not drawn) [Compound A]	–	–	–	–	–	–	% of Control (1 μM test compound + 1 μM Retinol): 86.2%; % of Control (10 μM test compound + 1 μM Retinol): 85.8% and 45.9%; % of Control [1]: 80.1% and 44.3%; % of Control (10 μM test compound alone, 10 µM): 88.8%
O=C(Nc1ccc(OC(F)(F)F)cc1)N1c2ccccc2CCc2ccccc21 [Compound B]	86	74.2	88.9	96	111	82	–
O=C(Nc1ccc(O)cc1)N1c2ccccc2CCc2ccccc21 [Compound C]	83.7	70.3	91.4	27.5	1.4	41.5	sebum suppressive activity when combined with retinol (in the presence of retinol / a retinoid, summary in words): improved activity
Cc1c(Cl)cccc1NC(=O)N1c2ccccc2CCc2ccccc21 [Compound D]	75.4	74.3	80.1	105	88.7	101	% of Control (100 μM test compound + 1 μM Retinol): 1.1%; % of Control (100 μM test compound + 10 μM Retinol): 0.5%; % of Control (100 μM test compound alone): 1.8%
O=C(CC1c2ccccc2-c2ccccc21)N1CCC(O)(c2ccc(Cl)cc2)CC1 [Compound F]	35.7	29.3	–	15.3	–	–	% of Control (10 μM test compound alone): 26.7% and 75.0%
O=C(CC1c2ccccc2-c2ccccc21)N1CCC(O)(c2ccccc2)CC1 [Compound G]	114	–	–	65.3	63.8	63	% of Control (1 μM test compound + 10 μM Retinol): 80.2% and 102.9%; % of Control (1 μM test compound alone, 1 µM): 77.3% and 105.2%; % of Control [1]: 75.4%
CCCN(CCO)C(=O)CC1c2ccccc2-c2ccccc21 [Compound H]	76.8	68	65.9	71	73.5	71.1	–
O=S1(=O)OC(c2ccc(O)cc2)(c2ccc(O)cc2)c2ccccc21 [Phenol Red, phenol red, reference compound]	–	–	–	–	–	–	% of Control (28 μM Phenol Red (positive control)): 84.4%; activity at 28 µM (Homo sapiens, 28 μM Phenol Red (positive control)): 67.6%
CC1=C(/C=C/C(C)=C/C=C/C(C)=C/CO)C(C)(C)CCC1 [Retinol, retinol, reference compound]	–	–	–	–	–	–	% of Control (1 μM Retinol alone): 98.4% and 99.9% and 85.5% and 99.3%; % of Control (10 μM Retinol alone): 101.8% and 111.7% and 100.1% and 81.8% and 104.8% and 95.2%; sebum suppressive activity (alone, summary in words): inactive
